This passage reports TGI results from PubChem BioAssay (NCI).

What all share (assay): growth of human tumour cells (NCI), 48 h
Assay [1] concerns SF-268 CNS.
Assay [2] relates to 786-0 renal.
Assay [3] concerns CCRF-CEM leukemia.
Assay [4] deals with SK-MEL-5 melanoma.
Assay [5] deals with KM12 colon.
Assay [6] relates to RXF 393 renal.
The subject of assay [7] is MALME-3M melanoma.
Assay [8] concerns M14 melanoma.
For assay [9], the system named is MDA-MB-435.
For assay [10], the system named is T-47D breast.
In assay [11] the test system is MCF7 breast.
The test system of assay [12] is HS 578T breast.
Assay [13] has as its system UACC-257 melanoma.
The subject of assay [14] is OVCAR-8 ovarian.
For assay [15], the system named is UO-31 renal.

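96-well plates; 48 h exposure; 5 concentrations. Endpoints by linear interpolation between flanking doses. Not reached: highest tested concentration assigned. At the TGI there is no net growth.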

With `COc1ccc(-n2cnc3c2NC(C)(C)N=C3C(N)=O)c(OC)c1`, the TGI in assay [1], in assay [2], in assay [3], in assay [4], in assay [5] and in [6] was over 100 µM throughout. The TGI in [7], in assay [8], in assay [9], in assay [10], in assay [11] and in assay [12] was over 100 µM throughout. In addition, the TGI in assay [13] and in assay [14] was over 100 µM in each case.
With `O=C1CSC(c2ccc([N+](=O)[O-])cc2)N1c1ccc(-n2c(-c3ccccc3)nc3ccccc3c2=O)cc1` (stereo not given), the TGI was over 100 µM in assay [1]; over 100 µM in assay [2]; over 100 µM in [3]; over 100 µM in [4]; 29.3 µM in assay [15]; over 100 µM in [5]. Further, the TGI in [7], in assay [8], in assay [9], in [10], in [11] and in [12] was over 100 µM in each case. Moreover, the TGI in assay [13] and in assay [14] was over 100 µM throughout.
As to `CCCCCCC(=O)O[C@H]1CC[C@H]2[C@@H]3CCC4C/C(=N/NC(=O)c5cccc6c(=O)c7ccccc7[nH]c56)C=C(C)[C@]4(C)[C@H]3CC[C@]12C` (stereo not given in full), the TGI in [1], in assay [2], in assay [3], in assay [4], in [15] and in assay [5] was over 25 µM throughout. For the same compound, the TGI in assay [7], in [8], in [9], in assay [10], in [11] and in assay [12] was over 25 µM throughout. Further, the TGI in assay [13] and in assay [14] was over 25 µM throughout.
As for `Cc1nn(C(=O)c2ccc(Cl)cc2)c2c1C(c1ccccc1[N+](=O)[O-])SC(N)=N2` (stereo not given), the TGI is over 10 µM in [1]; over 10 µM in assay [2]; over 10 µM in assay [3]; over 10 µM in assay [4]; over 10 µM in assay [5]; 2.25 µM in [6]. For the same compound, the TGI in [7], in assay [8], in [9], in [10], in [11] and in assay [12] was over 10 µM each time. For the same compound, the TGI in assay [13] and in assay [14] was over 10 µM each time.
With `Cn1c2ccc3cc2c(=S)c2cc(ccc21)OCCOCCOCCOCCOCCO3`, the TGI in [1], in assay [2], in assay [3], in [4], in [5] and in assay [6] was over 10 µM throughout. Besides, the TGI in assay [7], in assay [8], in [9], in [10], in assay [11] and in assay [12] was over 10 µM each time. The TGI in assay [13] and in [14] was over 10 µM throughout.
Regarding `CC1CC[C@@]2(OC1)OC1C[C@H]3[C@@H]4CC=C5CC(OC6OC(CO)C(OC7OC(CO)C(O)C(OC8OCC(O)C(O)C8O)C7OC7OC(CO)C(O)C(O)C7O)C(O)C6O)CCC5(C)[C@H]4CCC3(C)C1[C@@H]2C` (stereo not given in full), the TGI in [1] worked out at 9.45 µM; in [2], 19.4 µM; in [3], 12.1 µM; in [4], 8.43 µM; in assay [5] it was 10.5 µM; in [6] it was 9.43 µM. Besides, the TGI in assay [7] is over 25 µM; in assay [8], 17.1 µM; in assay [9] it was 13.4 µM; in assay [10] it was 11.9 µM; in assay [11] it was 14.6 µM; in [12], 9.57 µM. Besides, the values for the TGI in assay [13] and in [14] were 18 µM and 8.95 µM, respectively.
Turning to `O=C(CCc1ccc(O)c(O)c1)NCCc1cc(O)cc(O)c1`, the TGI in [1], in assay [2], in assay [3], in assay [4], in assay [15] and in assay [5] was over 100 µM in each case. In addition, the TGI in [6] is over 100 µM; in assay [8], over 100 µM; in assay [9] it was 66.6 µM; in [10] it was over 100 µM; in [11], over 100 µM; in assay [12] it was over 100 µM. The TGI in [13] and in assay [14] was over 100 µM throughout.
Turning to `CC(C)(C)OC(=O)N1CCC(C(=O)O)CC1`, the TGI in assay [1], in assay [2], in [3], in [4], in [15] and in [5] was over 100 µM throughout. In addition, the TGI in assay [7], in [8], in [9], in [10], in [11] and in assay [12] was over 100 µM in each case. The TGI in assay [13] and in [14] was over 100 µM throughout.
On to `O=C1NCc2ccccc2S(=O)(=O)n2cccc21`, for which the TGI in [1], in assay [2], in [3], in assay [4], in assay [15] and in assay [5] was over 100 µM throughout. Moreover, the TGI in [7], in assay [8], in assay [9], in assay [10], in assay [11] and in assay [12] was over 100 µM throughout. The TGI in assay [13] and in assay [14] was over 100 µM each time.
`C=CCc1cccc2cc(C(=O)Nc3ccccc3)c(=N)oc12`: the TGI in [1], in assay [2], in [3], in assay [4], in assay [5] and in assay [6] was over 100 µM in each case. The TGI in assay [7] was 58.7 µM; in assay [8], over 100 µM; in assay [9], over 100 µM; in assay [10], 85.7 µM; in assay [11], over 100 µM; in assay [12], over 100 µM. Further, the TGI in assay [13] and in assay [14] was over 100 µM each time.
Consider `CC1=NN(c2nc(N)nc(CSc3nc4n(c(=S)n3)CCN4)n2)C(C)(C)C1`, for which the TGI was 35.2 µM in assay [1]; over 100 µM in [2]; over 100 µM in [3]; over 100 µM in assay [4]; over 100 µM in assay [5]; 38.7 µM in assay [6]. The TGI in [8] is over 100 µM; in assay [9] it was over 100 µM; in assay [10], 54.1 µM; in assay [11], over 100 µM; in assay [12], 41.3 µM; in [13] it was over 100 µM. Further, the TGI in assay [14] worked out at 47.3 µM.
Take `Clc1cc(Cl)cc(C=NC23CC4CC(CC(C4)C2)C3)c1`: the TGI in assay [1], in assay [2], in [3], in assay [4], in assay [5] and in assay [6] was over 10 µM throughout. For the same compound, the TGI in assay [7], in [8], in [9], in assay [10], in assay [11] and in [12] was over 10 µM throughout. For the same compound, the TGI in assay [13] and in [14] was over 10 µM throughout.
For `C[C@@H](c1ccccc1)N1CN(C(=O)OCc2ccccc2)C(C)(C)CC1=O`, the TGI in assay [1] was over 100 µM; in assay [2] it was over 100 µM; in [3], over 100 µM; in [4], over 100 µM; in [5] it was over 100 µM; in assay [6], 70.9 µM. Further, the TGI in assay [7], in assay [8], in assay [9], in assay [10], in [11] and in assay [12] was over 100 µM in each case. The TGI in [13] and in assay [14] was over 100 µM throughout.
As for `CCOP(=O)(OCC)C(C)(CC)N/C(=N/C(NC(C)=O)(C(F)(F)F)C(F)(F)F)NC1=NC(C(F)(F)F)(C(F)(F)F)N=C(C(F)(F)F)O1` (stereo not given), the TGI in assay [1] is over 100 µM; in assay [2], over 100 µM; in [3] it was over 100 µM; in [4], 31.9 µM; in assay [5], over 100 µM; in assay [6] it was 93.8 µM. Besides, the TGI in [7] is 58.2 µM; in assay [8] it was 64.7 µM; in [9], over 100 µM; in assay [10] it was over 100 µM; in assay [11] it was 68.8 µM; in assay [12] it was over 100 µM. In addition, the TGI in assay [13] was 94.8 µM; in assay [14], over 100 µM.
